The target in assay [1] is T1, Bone morphogenetic protein receptor type-2 (Homo sapiens) (UniProt Q13873).
T1 sequence (whole entry): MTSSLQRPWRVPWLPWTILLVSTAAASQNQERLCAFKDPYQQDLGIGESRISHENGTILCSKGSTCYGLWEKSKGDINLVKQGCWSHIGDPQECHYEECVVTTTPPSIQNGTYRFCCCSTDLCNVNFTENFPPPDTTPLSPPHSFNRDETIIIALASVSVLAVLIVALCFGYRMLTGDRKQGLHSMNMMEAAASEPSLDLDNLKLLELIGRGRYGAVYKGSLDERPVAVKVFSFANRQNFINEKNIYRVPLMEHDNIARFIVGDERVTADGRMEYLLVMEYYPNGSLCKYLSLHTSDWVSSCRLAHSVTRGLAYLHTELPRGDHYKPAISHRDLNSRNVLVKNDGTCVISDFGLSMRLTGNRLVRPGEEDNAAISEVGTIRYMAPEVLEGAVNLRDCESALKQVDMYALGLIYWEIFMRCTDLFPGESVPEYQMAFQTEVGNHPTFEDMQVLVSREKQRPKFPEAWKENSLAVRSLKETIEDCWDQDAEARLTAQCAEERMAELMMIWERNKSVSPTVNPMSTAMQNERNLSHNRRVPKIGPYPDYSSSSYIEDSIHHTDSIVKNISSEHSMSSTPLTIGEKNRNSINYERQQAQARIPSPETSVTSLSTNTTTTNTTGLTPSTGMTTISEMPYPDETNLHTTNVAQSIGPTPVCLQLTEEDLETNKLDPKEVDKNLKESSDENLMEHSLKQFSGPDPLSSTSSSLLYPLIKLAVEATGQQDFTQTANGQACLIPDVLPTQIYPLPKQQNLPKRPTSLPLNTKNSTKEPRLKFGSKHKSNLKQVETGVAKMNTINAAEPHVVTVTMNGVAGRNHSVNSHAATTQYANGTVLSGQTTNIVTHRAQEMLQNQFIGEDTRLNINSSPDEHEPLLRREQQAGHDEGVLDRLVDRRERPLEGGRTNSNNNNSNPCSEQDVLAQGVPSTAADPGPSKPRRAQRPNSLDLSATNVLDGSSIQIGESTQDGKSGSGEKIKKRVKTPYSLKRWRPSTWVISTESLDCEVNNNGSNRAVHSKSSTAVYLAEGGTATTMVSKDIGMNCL
In words: BMPR2 SGC Tm panel (DSF). As to conditions: for ΔTm: Compound concentration 10.0 uM.

The target in assay [2] is Cyclin-dependent kinase 2 (Homo sapiens) (UniProt P24941). Nature of the assay: CDK2 SGC Tm panel (DSF). Particulars: for ΔTm: Compound concentration 10.0 uM.
In assay [3] the target is Ephrin type-A receptor 5 (Homo sapiens) (UniProt P54756). In words: EPHA5 SGC Tm panel (DSF). As to conditions: for ΔTm: Compound concentration 10.0 uM.
Sequence of Ephrin type-A receptor 5 (Homo sapiens) (P54756 whole entry): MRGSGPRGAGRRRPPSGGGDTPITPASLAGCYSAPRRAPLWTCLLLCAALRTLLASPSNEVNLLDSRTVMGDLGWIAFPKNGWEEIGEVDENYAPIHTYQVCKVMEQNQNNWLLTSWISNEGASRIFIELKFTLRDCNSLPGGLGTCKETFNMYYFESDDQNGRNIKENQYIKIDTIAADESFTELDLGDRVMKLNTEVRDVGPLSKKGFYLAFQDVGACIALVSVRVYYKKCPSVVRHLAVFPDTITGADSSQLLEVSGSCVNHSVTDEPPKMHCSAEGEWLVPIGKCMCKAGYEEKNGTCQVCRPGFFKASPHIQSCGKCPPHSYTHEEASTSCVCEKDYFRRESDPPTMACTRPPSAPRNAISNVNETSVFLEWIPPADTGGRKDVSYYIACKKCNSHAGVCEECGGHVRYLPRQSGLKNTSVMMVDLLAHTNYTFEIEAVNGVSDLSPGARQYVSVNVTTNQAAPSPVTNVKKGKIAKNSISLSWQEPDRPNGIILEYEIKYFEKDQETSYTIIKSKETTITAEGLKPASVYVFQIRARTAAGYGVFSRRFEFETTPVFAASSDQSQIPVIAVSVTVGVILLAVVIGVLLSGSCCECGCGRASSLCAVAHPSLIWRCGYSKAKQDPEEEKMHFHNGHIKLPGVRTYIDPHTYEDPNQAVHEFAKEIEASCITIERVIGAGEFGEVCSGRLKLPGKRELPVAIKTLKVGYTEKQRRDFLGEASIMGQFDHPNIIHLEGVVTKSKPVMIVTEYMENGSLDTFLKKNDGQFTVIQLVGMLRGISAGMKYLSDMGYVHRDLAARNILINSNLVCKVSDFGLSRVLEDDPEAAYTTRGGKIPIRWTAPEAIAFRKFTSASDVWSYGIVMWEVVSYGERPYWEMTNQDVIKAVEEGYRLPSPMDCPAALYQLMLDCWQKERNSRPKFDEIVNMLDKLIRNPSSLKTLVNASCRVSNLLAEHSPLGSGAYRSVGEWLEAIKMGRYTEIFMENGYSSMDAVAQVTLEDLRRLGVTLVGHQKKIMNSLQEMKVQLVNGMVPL
The target of assay [4] is T2, Serine/threonine-protein kinase Nek2 (Homo sapiens) (UniProt P51955).
T2 sequence (whole entry): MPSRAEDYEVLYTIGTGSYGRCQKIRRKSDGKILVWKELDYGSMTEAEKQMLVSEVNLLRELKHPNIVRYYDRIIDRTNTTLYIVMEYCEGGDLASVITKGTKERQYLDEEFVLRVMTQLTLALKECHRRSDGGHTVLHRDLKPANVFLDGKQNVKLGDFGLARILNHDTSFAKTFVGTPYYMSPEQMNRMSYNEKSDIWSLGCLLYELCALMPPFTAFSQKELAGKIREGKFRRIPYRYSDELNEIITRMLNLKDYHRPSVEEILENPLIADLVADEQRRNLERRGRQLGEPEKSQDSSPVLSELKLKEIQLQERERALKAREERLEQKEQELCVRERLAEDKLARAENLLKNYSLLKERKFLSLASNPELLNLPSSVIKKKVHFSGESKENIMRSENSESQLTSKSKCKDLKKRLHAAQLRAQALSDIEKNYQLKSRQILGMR
In words: NEK2 SGC Tm panel (DSF). As to conditions: for ΔTm: Compound concentration 10.0 uM.

Assay [5] has as its target Serine/threonine-protein kinase 38-like (Homo sapiens) (UniProt Q9Y2H1). In words: STK38L SGC Tm panel (DSF). As to conditions: for ΔTm: Compound concentration 10.0 uM.
For assay [6], the target named is Serine/threonine-protein kinase WNK1 (Homo sapiens) (UniProt Q9H4A3). In words: WNK1 SGC Tm panel (DSF). Particulars: for ΔTm: Compound concentration 10.0 uM.
Sequence of Serine/threonine-protein kinase WNK1 (Homo sapiens) (Q9H4A3 whole entry, looked up, canonical isoform): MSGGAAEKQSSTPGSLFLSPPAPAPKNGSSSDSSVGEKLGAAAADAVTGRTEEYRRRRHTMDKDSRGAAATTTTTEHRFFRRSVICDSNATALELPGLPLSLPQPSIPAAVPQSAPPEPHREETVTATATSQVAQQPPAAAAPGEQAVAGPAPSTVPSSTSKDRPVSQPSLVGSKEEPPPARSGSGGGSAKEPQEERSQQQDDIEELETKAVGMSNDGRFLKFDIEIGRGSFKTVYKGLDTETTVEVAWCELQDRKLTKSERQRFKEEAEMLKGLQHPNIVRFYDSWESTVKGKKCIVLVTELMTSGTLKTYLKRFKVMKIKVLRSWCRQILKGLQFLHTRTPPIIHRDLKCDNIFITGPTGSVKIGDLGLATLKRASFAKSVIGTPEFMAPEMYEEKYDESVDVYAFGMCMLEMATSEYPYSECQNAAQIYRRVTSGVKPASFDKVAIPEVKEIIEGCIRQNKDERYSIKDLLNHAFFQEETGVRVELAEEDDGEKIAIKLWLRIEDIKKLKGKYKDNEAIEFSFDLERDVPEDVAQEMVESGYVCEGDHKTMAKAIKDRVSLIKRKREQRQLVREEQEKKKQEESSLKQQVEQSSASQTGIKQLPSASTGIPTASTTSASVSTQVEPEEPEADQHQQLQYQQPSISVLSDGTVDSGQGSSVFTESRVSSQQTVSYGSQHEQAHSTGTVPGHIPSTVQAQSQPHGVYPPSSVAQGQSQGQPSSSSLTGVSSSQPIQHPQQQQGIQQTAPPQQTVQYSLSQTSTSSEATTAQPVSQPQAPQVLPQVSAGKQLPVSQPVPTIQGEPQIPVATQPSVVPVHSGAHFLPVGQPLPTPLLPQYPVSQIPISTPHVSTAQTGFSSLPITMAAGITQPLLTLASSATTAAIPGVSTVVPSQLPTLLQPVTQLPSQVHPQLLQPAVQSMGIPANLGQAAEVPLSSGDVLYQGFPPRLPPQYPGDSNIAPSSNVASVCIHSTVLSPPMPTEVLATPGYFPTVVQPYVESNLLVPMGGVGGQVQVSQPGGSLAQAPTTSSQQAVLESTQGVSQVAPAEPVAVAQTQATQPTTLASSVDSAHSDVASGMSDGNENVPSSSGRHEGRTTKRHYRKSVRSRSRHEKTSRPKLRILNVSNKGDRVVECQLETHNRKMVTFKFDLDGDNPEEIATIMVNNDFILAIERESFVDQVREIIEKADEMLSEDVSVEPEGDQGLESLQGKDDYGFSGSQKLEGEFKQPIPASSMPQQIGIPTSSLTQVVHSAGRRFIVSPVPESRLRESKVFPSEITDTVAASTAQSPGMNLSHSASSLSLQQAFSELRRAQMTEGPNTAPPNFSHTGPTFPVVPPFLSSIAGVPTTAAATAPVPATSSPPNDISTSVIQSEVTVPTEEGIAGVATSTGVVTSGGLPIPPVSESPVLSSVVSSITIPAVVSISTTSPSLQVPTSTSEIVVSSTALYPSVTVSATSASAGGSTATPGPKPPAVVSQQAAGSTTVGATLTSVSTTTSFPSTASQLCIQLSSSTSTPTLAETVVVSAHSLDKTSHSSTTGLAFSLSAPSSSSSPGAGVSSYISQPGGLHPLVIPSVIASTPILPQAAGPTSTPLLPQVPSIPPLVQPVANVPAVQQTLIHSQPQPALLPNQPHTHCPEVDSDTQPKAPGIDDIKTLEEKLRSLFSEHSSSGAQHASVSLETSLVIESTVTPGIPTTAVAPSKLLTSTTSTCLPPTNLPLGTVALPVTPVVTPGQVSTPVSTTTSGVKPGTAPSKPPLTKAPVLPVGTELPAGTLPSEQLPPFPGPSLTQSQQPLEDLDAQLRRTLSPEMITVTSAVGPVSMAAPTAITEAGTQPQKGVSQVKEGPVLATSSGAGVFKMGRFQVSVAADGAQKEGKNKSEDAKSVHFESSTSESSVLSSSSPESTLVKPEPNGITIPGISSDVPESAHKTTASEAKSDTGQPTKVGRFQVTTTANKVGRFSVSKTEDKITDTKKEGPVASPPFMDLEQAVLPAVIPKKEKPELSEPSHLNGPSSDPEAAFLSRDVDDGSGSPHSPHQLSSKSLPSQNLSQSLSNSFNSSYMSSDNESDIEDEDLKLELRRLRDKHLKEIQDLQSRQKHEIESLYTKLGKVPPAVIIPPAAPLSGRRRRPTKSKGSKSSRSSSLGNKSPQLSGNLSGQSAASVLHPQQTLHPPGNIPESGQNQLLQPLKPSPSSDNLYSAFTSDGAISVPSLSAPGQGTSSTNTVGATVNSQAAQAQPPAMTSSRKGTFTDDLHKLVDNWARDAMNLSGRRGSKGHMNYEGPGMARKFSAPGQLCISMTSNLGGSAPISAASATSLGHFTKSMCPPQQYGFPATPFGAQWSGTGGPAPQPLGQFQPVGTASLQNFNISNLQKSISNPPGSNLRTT
For assay [7], the target named is Casein kinase I isoform epsilon (Homo sapiens) (UniProt P49674). In words: CSNK1E SGC Tm panel (DSF). As to conditions: for ΔTm: Compound concentration 10.0 uM.
Sequence of Casein kinase I isoform epsilon (Homo sapiens) (P49674 whole entry, looked up, canonical isoform): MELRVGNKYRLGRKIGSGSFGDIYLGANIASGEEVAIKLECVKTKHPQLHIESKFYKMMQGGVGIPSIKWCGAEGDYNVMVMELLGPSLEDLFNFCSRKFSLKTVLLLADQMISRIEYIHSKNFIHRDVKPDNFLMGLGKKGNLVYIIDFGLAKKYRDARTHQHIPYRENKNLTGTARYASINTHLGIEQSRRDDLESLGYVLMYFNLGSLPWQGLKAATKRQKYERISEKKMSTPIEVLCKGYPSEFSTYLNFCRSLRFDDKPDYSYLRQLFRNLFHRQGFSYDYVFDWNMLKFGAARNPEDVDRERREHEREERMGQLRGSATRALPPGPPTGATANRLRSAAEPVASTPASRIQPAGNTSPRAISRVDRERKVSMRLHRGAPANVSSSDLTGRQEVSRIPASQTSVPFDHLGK
The target in assay [8] is T3, Ferrochelatase, mitochondrial (Homo sapiens) (UniProt P22830).
T3 sequence (whole entry): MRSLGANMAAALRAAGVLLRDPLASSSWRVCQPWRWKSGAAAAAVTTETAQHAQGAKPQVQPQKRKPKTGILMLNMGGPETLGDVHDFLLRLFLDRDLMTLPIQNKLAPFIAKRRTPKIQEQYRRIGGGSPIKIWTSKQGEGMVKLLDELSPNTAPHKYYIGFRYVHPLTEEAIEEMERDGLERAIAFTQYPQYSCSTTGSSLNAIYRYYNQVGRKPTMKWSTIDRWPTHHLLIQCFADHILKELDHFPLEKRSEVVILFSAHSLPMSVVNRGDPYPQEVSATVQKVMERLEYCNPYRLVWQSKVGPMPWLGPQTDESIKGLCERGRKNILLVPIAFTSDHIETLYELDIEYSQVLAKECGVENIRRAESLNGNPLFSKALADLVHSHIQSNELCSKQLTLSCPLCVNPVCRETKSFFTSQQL
Nature of the assay: FECH SGC Tm panel (DSF). As to conditions: for ΔTm: Compound concentration 10.0 uM.

The target in assay [9] is D(2) dopamine receptor (Homo sapiens) (UniProt P14416). As to conditions: Compound concentration 10.0 uM.
Sequence of D(2) dopamine receptor (Homo sapiens) (P14416 whole entry): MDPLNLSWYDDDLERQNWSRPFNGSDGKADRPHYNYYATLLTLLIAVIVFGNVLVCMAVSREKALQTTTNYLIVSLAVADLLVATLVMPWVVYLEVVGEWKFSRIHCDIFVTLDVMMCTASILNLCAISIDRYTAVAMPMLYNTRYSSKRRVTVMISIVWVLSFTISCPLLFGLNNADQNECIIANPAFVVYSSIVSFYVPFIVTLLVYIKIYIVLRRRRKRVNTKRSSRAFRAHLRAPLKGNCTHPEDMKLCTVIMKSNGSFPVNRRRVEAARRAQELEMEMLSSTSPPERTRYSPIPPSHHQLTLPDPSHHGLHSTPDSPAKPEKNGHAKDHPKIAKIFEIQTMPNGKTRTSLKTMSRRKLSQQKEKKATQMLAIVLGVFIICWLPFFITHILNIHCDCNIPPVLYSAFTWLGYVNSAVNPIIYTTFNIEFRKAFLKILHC

One may read the inhibition as the share of the control response that was lost under treatment.

Sequence of Serine/threonine-protein kinase 38-like (Homo sapiens) (Q9Y2H1 2-464 limits assumed): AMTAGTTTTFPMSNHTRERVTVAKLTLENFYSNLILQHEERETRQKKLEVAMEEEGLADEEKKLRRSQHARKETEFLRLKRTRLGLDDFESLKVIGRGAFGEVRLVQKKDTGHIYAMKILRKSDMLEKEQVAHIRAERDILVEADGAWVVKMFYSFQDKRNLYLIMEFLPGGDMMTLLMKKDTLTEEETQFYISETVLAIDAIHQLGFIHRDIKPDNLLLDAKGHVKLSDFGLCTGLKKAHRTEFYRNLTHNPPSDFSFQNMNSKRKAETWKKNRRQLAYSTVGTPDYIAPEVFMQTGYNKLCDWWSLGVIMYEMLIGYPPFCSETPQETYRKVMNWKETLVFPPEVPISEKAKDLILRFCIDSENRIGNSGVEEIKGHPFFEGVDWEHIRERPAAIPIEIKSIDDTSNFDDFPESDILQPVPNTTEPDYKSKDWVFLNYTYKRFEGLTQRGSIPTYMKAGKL

For the molecule `C[C@H](NC(=O)c1cn(C2(C#N)CC2)cn1)C(=O)Nc1nc(-c2cccc(-c3ccn(C)n3)c2)cs1`, the delta Tm Staurosporine positive control in assay [1] was 2.89; in [2], 15.5; in [3] it was 8.98; in [4], 3.7; in assay [5], 10.8; in assay [6], 0.638. Moreover, the figures for the delta Tm Staurosporine positive control in assay [7] and in assay [8] were 3.74 and 1.69, respectively. Besides, the ΔTm in [1] is 0.38; in [2], 0.352; in [3] it was 0.273; in assay [4] it was -0.146; in assay [5], 0.237; in assay [6], 0.361. Further, the ΔTm was 0.73 in [7] and -0.558 in assay [8]. The inhibition in assay [9] is 6.41%.
As for `COC[C@H](NC(=O)c1ccn(S(C)(=O)=O)c1)C(=O)Nc1nc(-c2cccc(-c3ccn(C)n3)c2)cs1`, the delta Tm Staurosporine positive control in assay [1] is 2.89; in assay [2], 15.5; in assay [3] it was 8.98; in assay [4], 3.7; in assay [5], 10.8; in assay [6], 0.638. Also, the delta Tm Staurosporine positive control in assay [7] is 3.74; in [8], 1.69. Also, the ΔTm in assay [1] was 0.371; in assay [2], 0.601; in assay [3], 0.13; in assay [4] it was 0.182; in assay [5], 0.451; in [6], 0.232. Moreover, the ΔTm in [7] was 0.508; in [8], 0.0581. The inhibition in assay [9] is 6.68%.

Source of the values: ChEMBL document CHEMBL5303766, “Data for DCP probe FHT-2344” (2022).
